Molecular target: T1, recombinant human CCR5 receptor (Homo sapiens, UniProt P51681)
T1 construct: expressed in transfected cells; host or cells: Chinese hamster ovary (CHO) cells; membranes
Assay: Radioligand binding assay for inhibition of the binding of MIP-1α
Settings: displacement of 0.1 nM iodinated MIP-1α; membranes of Chinese hamster ovary cells expressing CCR5
Experimental: Biological Assay for the Ability of Compounds to Inhibit the Binding of MIP-1α This ability is assessed using an in vitro radioligand binding assay. Membranes are prepared from Chinese hamster ovary cells which express the recombinant human CCR5 receptor. These membranes are incubated with 0.1 nM iodinated MIP-1α, scintillation proximity beads and various concentrations of the compounds of the invention in 96-well plates. The amount of iodinated MIP-1α bound to the receptor is then determined by scintillation counting.

T1 sequence (P51681 whole entry): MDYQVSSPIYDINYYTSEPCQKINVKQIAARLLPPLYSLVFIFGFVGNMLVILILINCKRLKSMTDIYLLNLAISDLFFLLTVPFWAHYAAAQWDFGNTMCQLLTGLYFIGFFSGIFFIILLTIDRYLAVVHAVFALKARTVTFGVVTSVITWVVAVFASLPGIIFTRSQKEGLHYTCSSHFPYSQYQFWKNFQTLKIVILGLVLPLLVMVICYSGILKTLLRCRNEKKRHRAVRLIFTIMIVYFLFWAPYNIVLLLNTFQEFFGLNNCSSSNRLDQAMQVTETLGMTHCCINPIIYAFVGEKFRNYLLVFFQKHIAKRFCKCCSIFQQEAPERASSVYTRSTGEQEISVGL

| Structure (SMILES) | IC50 |
| --- | --- |
| O=C(Nc1ccc(Cl)cc1)N1CCN(C[C@@H]2CCCN(CCc3ccccc3)C2)CC1 [Example 181, N-(4-chlorophenyl)-4-{[(3R)-1-(2-phenylethyl)piperidin-3-yl]methyl} piperazine-1-carboxamide] | < 10 µM |
| CC(C)N1CCN[C@@H](C(=O)N2CCN(C(=O)Nc3cccc(Cl)c3)CC2)C1 [Example 211, N-(3-chlorophenyl)-4-{[(2R)-4-isopropylpiperazin-2-yl]carbonyl}piperazine-1-carboxamide] | < 10 µM |
| CCC(C)N1CCOC(CN2CCN(C(=O)Nc3ccc(F)c(Cl)c3)CC2)C1 (stereo in doubt) [Example 236, N-(3-chloro-4-fluorophenyl)-4-({(2R)-4-[(1R)-1-methylpropyl]morpholin-2-yl}methyl)piperazine-1-carboxamide] | < 10 µM |
| COc1ccc(CCN2CCC[C@@H](CN3CCN(C(=O)Nc4ccccc4)CC3)C2)cc1 [Example 250, 4-[[(3R)-1-[2-(4-methoxyphenyl)ethyl]-3-piperidyl]methyl]-N-phenyl-piperazine-1-carboxamide] | < 10 µM |
| CC(C)N1CCO[C@@H](CN2CCN(C(=O)Nc3cccs3)CC2)C1 [Example 188, 4-{[(2S)-4-isopropylmorpholin-2-yl]methyl}-N-2-thienylpiperazine-1-carboxamide] | < 10 µM |
| CC(C)N1CCN[C@@H](C(=O)N2CCN(C(=O)Nc3nc(C(F)(F)F)cs3)CC2)C1 [Example 290, 4-{[(2R)-4-Isopropylpiperazin-2-yl]carbonyl}-N-[4-(trifluoromethyl)-1,3-thiazol-2-yl]piperazine-1-carboxamide] | < 10 µM |
| CC(C1CC1)N1CCN[C@@H](C(=O)N2CCN(C(=O)Nc3ccc(Cl)c(Cl)c3)CC2)C1 (stereo partly drawn) [Example 281, 4-{[(2R)-4-(1-Cyclopropylethyl)piperazin-2-yl]carbonyl}-N-(3,4-dichlorophenyl)piperazine-1-carboxamide] | < 10 µM |
| N#Cc1ccc(OCCN2CCC[C@@H](CN3CCN(C(=O)Nc4ccc(Cl)c(Cl)c4)CC3)C2)cc1 [Example 170, 4-({(3S)-1-[2-(4-Cyanophenoxy)ethyl]piperidin-3-yl}methyl)-N-(3,4-dichlorophenyl)piperazine-1-carboxamide] | < 10 µM |
| O=C(Nc1ccc(Cl)c(Cl)c1)N1CCN(C(=O)[C@@H]2CCCN(CCc3ccccc3)C2)CC1 [Example 89, N-(3,4-dichlorophenyl)-4-{[(3R)-1-(2-phenylethyl)piperidin-3-yl]carbonyl}piperazine-1-carboxamide] | < 10 µM |
| CCN1CCN[C@@H](C(=O)N2CCN(C(=O)Nc3ccc(Cl)cc3)CC2)C1 [Example 131, N-(4-Chlorophenyl)-4-{[(2R)-4-ethylpiperazin-2-yl]carbonyl}piperazine-1-carboxamide] | < 10 µM |
| CC(C)N1CCO[C@@H](CN2CCN(C(=O)Nc3ccc(Cl)c(Cl)c3)CC2)C1 [Example 119, N-(3,4-dichlorophenyl)-4-{[(2S)-4-isopropylmorpholin-2-yl]methyl}piperazine-1-carboxamide] | < 10 µM |
| CC(C)N1CCN[C@@H](C(=O)N2CCN(C(=O)Nc3ccc(C(F)(F)F)cc3)CC2)C1 [Example 212, 4-{[(2R)-4-isopropylpiperazin-2-yl]carbonyl}-N-[4-(trifluoromethyl)phenyl]piperazine-1-carboxamide] | < 10 µM |
| O=C(Nc1ccc(Cl)c(C(F)(F)F)c1)N1CCN(C[C@@H]2CCCN(C3CC3)C2)CC1 [Example 186, N-[4-chloro-3-(trifluoromethyl)phenyl]-4-{[(3S)-1-cyclopropylpiperidin-3-yl]methyl}piperazine-1-carboxamide] | < 10 µM |
| C[C@@H](CC(C)(C)O)N1CCO[C@@H](CN2CCN(C(=O)Nc3ccc(F)c(Cl)c3)CC2)C1 [Example 235, N-(3-chloro-4-fluorophenyl)-4-({(2S)-4-[(1S)-3-hydroxy-1,3-dimethylbutyl]morpholin-2-yl}methyl)piperazine-1-carboxamide] | < 10 µM |
| O=C(Nc1ccc(Cl)c(Cl)c1)N1CCN(C[C@@H]2CCCN(Cc3c[nH]nc3-c3cccs3)C2)CC1 [Example 199, N-(3,4-Dichlorophenyl)-4-[((3R)-1-{[3-(2-thienyl)-1H-pyrazol-4-yl]methyl}piperidin-3-yl)methyl]piperazine-1-carboxamide] | < 10 µM |
| C=C(C)CN1CCN[C@@H](C(=O)N2CCN(C(=O)Nc3ccc(Cl)c(Cl)c3)CC2)C1 [Example 304, N-(3,4-dichlorophenyl)-4-{[(2R)-4-(2-methylprop-2-en-1-yl)piperazin-2-yl]carbonyl}piperazine-1-carboxamide] | < 10 µM |
| CS(=O)(=O)c1ccc(CCCN2CCC[C@@H](CN3CCN(C(=O)Nc4ccc(Cl)c(Cl)c4)CC3)C2)cc1 [Example 328, N-(3,4-Dichlorophenyl)-4-[((3R)-1-{3-[4-(methylsulfonyl)phenyl]propyl}piperidin-3-yl)methyl]piperazine-1-carboxamide] | < 10 µM |

| Structure (SMILES) | IC50 |
| --- | --- |
| Cc1ccc(NC(=O)N2CCN(C(=O)[C@H]3CN(C(C)C)CCN3)CC2)cc1F [Example 218, N-(3-fluoro-4-methylphenyl)-4-{[(2R)-4-isopropylpiperazin-2-yl]carbonyl}piperazine-1-carboxamide] | < 10 µM |
| CS(=O)(=O)c1ccc(CCCN2CCC[C@@H](CN3CCN(C(=O)Nc4ccc(Cl)cc4)CC3)C2)cc1 [Example 325, N-(4-Chlorophenyl)-4-[((3R)-1-{3-[4-(methylsulfonyl)phenyl]propyl}piperidin-3-yl)methyl]piperazine-1-carboxamide] | < 10 µM |
| O=C(Nc1ccc(Cl)c(Cl)c1)N1CCN(C[C@H]2CN(C3CCCC3)CCO2)CC1 [Example 118, 4-{[(2S)-4-cyclopentylmorpholin-2-yl]methyl}-N-(3,4-dichlorophenyl)piperazine-1-carboxamide] | < 10 µM |
| CC(=O)N1CCC(N2CCO[C@@H](CN3CCN(C(=O)Nc4ccc(Cl)c(Cl)c4)CC3)C2)CC1 [Example 120, 4-{[(2S)-4-(1-acetylpiperidin-4-yl)morpholin-2-yl]methyl}-N-(3,4-dichlorophenyl)piperazine-1-carboxamide] | < 10 µM |
| CC(C)N1CCN[C@@H](C(=O)N2CCN(C(=O)Nc3cc(F)cc(C(F)(F)F)c3)CC2)C1 [Example 288, N-[3-Fluoro-5-(trifluoromethyl)phenyl]-4-{[(2R)-4-isopropylpiperazin-2-yl]carbonyl}piperazine-1-carboxamide] | < 10 µM |
| O=C(Nc1ccc(C(F)(F)F)c(Cl)c1)N1CCN(C[C@@H]2CCCN(C3CC3)C2)CC1 [Example 106, N-[3-chloro-4-(trifluoromethyl)phenyl]-4-{[(3S)-1-cyclopropylpiperidin-3-yl]methyl}piperazine-1-carboxamide] | < 10 µM |
| O=C(Nc1ccc(Cl)c(Cl)c1)N1CCN(C[C@@H]2CCCN(CCc3ccc(Cl)cc3)C2)CC1 [Example 154, 4-({(3R)-1-[2-(4-Chlorophenyl)ethyl]piperidin-3-yl}methyl)-N-(3,4-dichlorophenyl)piperazine-1-carboxamide] | < 10 µM |
| O=C(Nc1ccc(Cl)c(Cl)c1)N1CCN(C[C@@H]2CCCN(C3Cc4ccccc4C3)C2)CC1 [Example 161, N-(3,4-dichlorophenyl)-4-{[(3S)-1-(2,3-dihydro-1H-inden-2-yl)piperidin-3-yl]methyl}piperazine-1-carboxamide] | < 10 µM |
| O=C(Nc1ccc(Cl)c(Cl)c1)N1CCN(CC2CCCN(C3CC3)C2)CC1 (stereo in doubt) [Example 139, 1-{[(3R)-1-Cyclopropylpiperidin-3-yl]methyl}-N-(3,4-dichlorophenyl)piperazine-4-carboxamide] | < 10 µM |
| O=C(Nc1ccc(Cl)c(Cl)c1)N1CCN(CC2CCN([C@H]3CC[C@](O)(c4ccncc4)CC3)C2)CC1 (stereo partly drawn) [Example 150, N-(3,4-dichlorophenyl)-4-{[1-(4-hydroxy-4-pyridin-4-ylcyclohexyl)pyrrolidin-3-yl]methyl}piperazine-1-carboxamide] | < 10 µM |
| O=C(Nc1ccc(Cl)c(Cl)c1)N1CCN(C(=O)[C@H]2CN(CC3CCOC3)CCN2)CC1 (stereo partly drawn) [Example 271, N-(3,4-dichlorophenyl)-4-{[(2R)-4-(tetrahydrofuran-3-ylmethyl)piperazin-2-yl]carbonyl}piperazine-1-carboxamide] | < 10 µM |
| CC(C)N1CCN[C@@H](C(=O)N2CCN(C(=O)Nc3cccc(C(F)(F)F)c3)CC2)C1 [Example 214, 4-{[(2R)-4-isopropylpiperazin-2-yl]carbonyl}-N-[3-(trifluoromethyl)phenyl]piperazine-1-carboxamide] | < 10 µM |
| CC(C)N1CCN[C@@H](C(=O)N2CCN(C(=O)Nc3ccc(Cl)c(C(F)(F)F)c3)CC2)C1 [Example 213, N-[4-chloro-3-(trifluoromethyl)phenyl]-4-{[(2R)-4-isopropylpiperazin-2-yl]carbonyl}piperazine-1-carboxamide] | < 10 µM |
| O=C(Nc1ccc(Cl)c(Cl)c1)N1CCN(CC2CCCN(CC(O)c3cccc[n+]3[O-])C2)CC1 (stereo in doubt) [Example 267, N-(3,4-dichlorophenyl)-4-({(3R)-1-[2-hydroxy-2-(1-oxidopyridin-2-yl)ethyl]piperidin-3-yl}methyl)piperazine-1-carboxamide] | < 10 µM |
| O=C(Nc1ccccc1)N1CCN(C[C@@H]2CCCN(CCc3ccc(F)cc3)C2)CC1 [Example 248, 4-[[(3R)-1-[2-(4-fluorophenyl)ethyl]-3-piperidyl]methyl]-N-phenyl-piperazine-1-carboxamide] | < 10 µM |
| CC(C)N1CCN[C@@H](C(=O)N2CCN(C(=O)Nc3ccc(Cl)c(Cl)c3)CC2)C1 [Example 134, N-(3,4-dichlorophenyl)-4-{[(2R)-4-isopropylpiperazin-2-yl]carbonyl}piperazine-1-carboxamide] | < 10 µM |

— patent publication US8710224B2, “Heterocyclic compounds as CCR2B antagonists” (AstraZeneca AB, priority 2004, dated 2014)
